# In patent publication US20210061800A1, “COMPOUNDS FOR TREATING EYE DISEASES AND METHODS THEREOF” (Agency for Science, Technology and Research, priority 2017, published 2021):
# Legend:
# human PDGFRβWT = assay: Humanized yeast screen: prevention of PDGFR-induced death of yeast cells; settings: 10 μM; compared to DMSO or Gleevec
# Description: A humanized yeast screen was performed. Yeast cells carrying stably integrated GAL-PDGFRβ were first grown in YEP+raff medium and then seeded into fresh YEP+raff+GAL medium to induce expression of human PDGFRβWT.
# PDGFR-WT [1] = molecular target: T1, PDGFR-WT (Homo sapiens, UniProt P09619); assay: PDGFRβ signaling in HEK293 cells (Western blot: PDGFRβ autophosphorylation, Shp2 phosphorylation); assay type: cell-based; parameters: expressed in transfected cells; host or cells: HEK293; settings: 20 ng/ml PDGF
# Description: FIG. 5 illustrates a Western-blot analysis result of Ex 1 (a compound of the present invention), in relation to inhibit PDGFRβ signaling in HEK293 cells expressing PDGFRβ.
# Human Embryonic kidney cells (HEK293) were constructed to express human PDGFRWT under the control of constitutive CMV promoter. Cells were grown in the presence of 20 ng/ml PDGF (the ligand for the PDGFRβ) to activate the PDGFRβ. Different concentration of Ex 1 were added to study its effect on the PDGFRβ-mediated signaling. Autophosphorylation of PDGFRβ and Shp2 phosphorylation were monitored by Western blotting were used as the markers for PDGFRβ signaling. B Actin was used as an internal control.
# Target sequence in this assay (P09619 33-1106): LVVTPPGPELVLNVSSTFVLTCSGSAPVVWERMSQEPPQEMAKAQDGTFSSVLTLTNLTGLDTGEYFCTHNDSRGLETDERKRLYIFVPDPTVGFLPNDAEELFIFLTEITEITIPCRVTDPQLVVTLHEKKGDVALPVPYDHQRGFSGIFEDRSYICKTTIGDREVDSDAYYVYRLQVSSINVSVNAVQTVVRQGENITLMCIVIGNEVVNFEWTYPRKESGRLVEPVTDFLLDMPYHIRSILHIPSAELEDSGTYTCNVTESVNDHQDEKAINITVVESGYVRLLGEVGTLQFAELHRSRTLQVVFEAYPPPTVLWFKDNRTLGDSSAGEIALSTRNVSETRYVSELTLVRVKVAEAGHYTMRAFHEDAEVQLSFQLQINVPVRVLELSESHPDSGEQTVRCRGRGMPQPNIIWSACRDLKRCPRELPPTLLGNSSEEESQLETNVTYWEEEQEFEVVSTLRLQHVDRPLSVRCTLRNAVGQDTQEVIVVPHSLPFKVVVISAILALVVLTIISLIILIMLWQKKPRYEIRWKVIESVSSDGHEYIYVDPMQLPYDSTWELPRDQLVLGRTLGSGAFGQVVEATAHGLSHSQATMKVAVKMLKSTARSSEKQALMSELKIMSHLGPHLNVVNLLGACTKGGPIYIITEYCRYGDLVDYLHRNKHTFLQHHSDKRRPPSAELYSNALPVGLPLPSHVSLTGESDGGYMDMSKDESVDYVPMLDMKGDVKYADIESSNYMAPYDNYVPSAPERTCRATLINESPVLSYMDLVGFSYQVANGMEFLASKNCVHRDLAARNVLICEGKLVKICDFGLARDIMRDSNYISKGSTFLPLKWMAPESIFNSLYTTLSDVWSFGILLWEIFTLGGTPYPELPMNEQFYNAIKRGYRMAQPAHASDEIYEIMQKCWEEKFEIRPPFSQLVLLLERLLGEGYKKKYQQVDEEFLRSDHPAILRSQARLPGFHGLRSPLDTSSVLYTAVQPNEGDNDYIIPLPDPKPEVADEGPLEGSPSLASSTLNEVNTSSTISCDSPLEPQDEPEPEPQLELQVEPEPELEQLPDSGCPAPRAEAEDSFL
# [2] = test system: Choroid membrane preparations; assay: Ex vivo organoid model of angiogenesis (choroid membrane preparations in Matrigel); assay type: cell-based, mice; settings: mouse choroid in Matrigel
# Description: Choroid membrane preparations isolated from young mice were cultured in Matrigel. Matrigel containing these preparations were layered with growth medium containing various concentrations of Ex 2 and Ex 3. The ‘blood vessel’ growth was monitored and quantified using a specialized image analysis software.
# FIG. 10 illustrates the efficacy of the compounds of the present invention in an ex vivo organoid model of angiogenesis. Compounds of the present invention show anti-angiogenesis in organoid model.
# human PDGFRβ = molecular target: T2, human PDGFRβ (Homo sapiens, UniProt P09619); assay: PDGFRβ signaling in Ba/F3 cells (Western blot); assay type: cell-based; settings: BaF3 cells expressing PDGFRβ, PDGF-induced
# T2 construct: expressed in transfected cells; host or cells: Ba/F3
# T2 sequence (P09619 33-1106): as above
# Description: FIG. 7 illustrates a Western-blot analysis result of Ex 2 and Ex 3 (compounds of the present invention) to inhibit PDGFRβ signaling in BaF3 cells expressing PDGFRβ.
# Ba/F3 cells were constructed to express human PDGFRβ under the control of CMV promoter. The PDGFRβ signaling was induced by addition of the ligand PDGF. The effect of […] and Ex 3 was added to the cell cultures at different concentrations to determine their efficacy to inhibit the PDGFRβ signaling as reflected by the inhibition of PDGFRβ autophosphorylation and the phosphorylation of Shp2, a downstream effector of the PDGFRβ signal pathway.
# FIG. 7 illustrates a Western-blot analysis result, illustrating the efficacy of compounds of the present invention to inhibit PDGFRβ signaling in BaF3 cells expressing PDGFRβ.
# PDGFR-WT [3] = molecular target: T1, PDGFR-WT; assay: PDGFRβ-dependent growth of Ba/F3 cells; assay type: cell-based; settings: inhibition of PDGFRβ-dependent growth of Ba/F3 cells; read-out: effective concentration-50 (EC50) against PDGFR-WT
# Description: Based on in silico modelling and simulation, different derivatives of the diphenyl oxyacetamide based compounds (formula (I)) were synthesized. The potency of the compounds were measured in terms of its ability to inhibit the PDGFRβ-dependent growth of Ba/F3 cells.
# FIG. 6 illustrates work flow for synthesis of G6 derivatives Effective Concentration-50 (EC50) as determined using Ba/F3 cell.
# Target sequence in this assay (P09619 554-1106 limits assumed, change not shown): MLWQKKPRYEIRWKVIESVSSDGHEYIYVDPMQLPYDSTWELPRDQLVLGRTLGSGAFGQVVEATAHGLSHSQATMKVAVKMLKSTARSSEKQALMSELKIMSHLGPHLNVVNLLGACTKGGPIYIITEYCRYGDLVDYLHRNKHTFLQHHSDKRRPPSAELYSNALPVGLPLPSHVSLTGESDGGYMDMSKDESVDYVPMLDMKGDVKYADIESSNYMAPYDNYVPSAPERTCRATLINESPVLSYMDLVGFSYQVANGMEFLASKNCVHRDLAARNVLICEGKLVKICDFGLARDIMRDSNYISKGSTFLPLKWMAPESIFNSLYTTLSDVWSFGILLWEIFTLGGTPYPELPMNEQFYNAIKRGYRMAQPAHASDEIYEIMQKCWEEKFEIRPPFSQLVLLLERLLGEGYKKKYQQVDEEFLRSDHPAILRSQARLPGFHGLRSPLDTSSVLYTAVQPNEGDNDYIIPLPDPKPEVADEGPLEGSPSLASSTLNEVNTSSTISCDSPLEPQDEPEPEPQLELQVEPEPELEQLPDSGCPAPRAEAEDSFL
# [4] = test system: Choroid Neo-Vascularization; assay: Laser CNV mouse model for wet-AMD; assay type: in vivo; settings: injection into one eye, imaged for two weeks
# Description: In vivo testing of Ex 3 in CNV (Choroid Neo-Vascularization)-laser mouse model was performed. Eyes of young mice were treated with laser to create choroid damage which results in the leakage of blood vessels (seen as light areas of FIG. 11). In each mouse, one eye was injected with a predetermined amount of Ex 3 while the other eye remained untreated to serve as ‘treatment(−)’ control. Mouse eyes were imaged intermittently for two weeks. The efficacy of the compound Ex 3 is indicated by its ability to prevent the leakage of the blood vessels (reduction or disappearance of the bright green areas).
# FIG. 11 illustrates the efficacy of a compound of the present invention in Laser CNV mouse model for wet-AMD.
SMILES,cell growth (OD reading) of humanized yeast expressing PDGFRβ (human PDGFRβWT),inhibition of PDGFRWT-mediated signaling (PDGFR-WT [1]),anti-angiogenesis efficacy ('blood vessel' growth) [2],activity against PDGFRβ-WT signaling (human PDGFRβ),EC50 (PDGFR-WT [3]) [nM],efficacy in preventing leakage of blood vessels [4]
"Cc1ccc(NC(=O)COc2ccc(-n3cnnn3)cc2)cc1C [Ex 1, N-(3,4-dimethylphenyl)-2-[4-(tetrazol-1-yl)phenoxy]acetamide]",allows cell-growth more efficiently compared to DMSO or Gleevec,efficiently inhibits the PDGFRWT-mediated signaling,–,–,–,–
"Cc1ccc(NC(=O)COc2ccc(-c3cnc4ccccn34)cc2)cc1C [Ex 2, N-(3,4-dimethylphenyl)-2-[4-imidazo[1,2-a]pyridin-3-ylphenoxy]acetamide]",–,–,better anti-angiogenesis efficacy then Ex 3,show activities against PDGFRβ-WT,10,–
"Cc1ccc(NC(=O)COc2ccc(-c3cnc4ccccn34)cc2)cc1C(F)(F)F [Ex 3, N-[4-methyl-3-(trifluoromethyl)phenyl]-2-[4-imidazo[1,2-a]pyridin-3-ylphenoxy]acetamide]",–,–,–,show activities against PDGFRβ-WT,10,efficacy
